Laboratory results published in publication PMC7219108, “Pisum sativum Defensin 1 Eradicates Mouse Metastatic Lung Nodules from B16F10 Melanoma Cells” (International Journal of Molecular Sciences, 2020).

Legend:
[1] = tested on: R8 (rat lymphocyte) cells; test: LDH release cell viability, healthy R8 cells; format: cell-based; details: 30 µM, 3 h (6 µM not tested)
[2] = tested on: Beas-2B (bronchial human respiratory epithelial) cells; test: MTT cell viability, healthy Beas-2B cells; format: cell-based; details: 3.125-50 µM, 24, 48 and 72 h
[3] = tested on: fungal mutants lacking glucosylceramide synthase; details: cited from earlier work
[4] = tested on: lung inflammatory cells, C57BL/6 mice; test: Lung histology (HE), inflammatory foci; format: in vivo, mouse
From the text: Figure 7 Psd1 inhibited the appearance of inflammatory cells in lung tissues. Two animals from each group of the in vivo experiment were anaesthetized and submitted to transcardial perfusion for further histological procedures. The lungs were removed and prepared for hematoxylin and eosin (HE) staining as described in the Materials and Methods. (A) Representative images from the lungs of one animal from each experimental group. […] The left and right panels indicate 10× and 20× magnifications, and the bars represent 200 and […], respectively. (B) Quantification of inflammatory infiltration (± SEM) was obtained in six fields, corresponding to 90% of the tissue. […] Values represent the mean ± SD of two independent experiments analyzed by one-way ANOVA and Bonferroni’s multiple comparison test.
After the above procedure, two animals from each group were anaesthetized and submitted to treatment with 4% paraformaldehyde in 0.1 M phosphate buffer (pH 7.4) by transcardial perfusion. The lung was removed and immersed in the same fixative solution. The lung specimens were sliced into 5 mm pieces, dehydrated through an ascending ethanol series (70, 95, and 100% ethanol for 30 min each) and then embedded in paraffin using standard procedures. Serial 5 µm-thick sections were prepared using a sliding microtome (Leica Microsystems, Wetzlar, Germany). Hematoxylin and eosin (HE) staining wereperformed to quantify possible foci of inflammatory infiltrates and fibrosis in experimental and control animals. The stained sections were observed, and digital images were taken with a Zeiss AxioPhot fluorescence microscope (Carl-Zeiss, Oberkochen, Germany). Specifically, two slices of each sample (six fields of each slice corresponding to approximately 90% of the slice) were used for quantitative analysis to obtain the mean value.

B16F10 cells [5] = test: SYTOXGreen uptake (membrane permeabilization), B16F10 cells; format: cell-based, murine
Method: (§1) Figure 2 Psd1 promotes B16F10 live cell membrane permeabilization as monitored by SYTOX Green fluorescence. (A) Psd1 untreated and hydrogen peroxide-treated B16F10 cells. (B) A total of 1.5 × 10^4 B16F10 cells were incubated with 3 or 50 µM Psd1 for 30 min. (C) 1.5 × 10^4 B16F10 cells were incubated with 50 µM Psd1 for 1 h. All experiments were performed at 37 °C. Nucleus staining is shown in green (SYTOXGreen), and mitochondria are shown in red (MitoTracker Red CMXRos). Images are shown at 20× magnification. […] (E) Psd1 induces apoptosis in B16F10 cells. B16F10 cells were treated with 50 µM Psd1 for 24 h and labeled with propidium iodide, and the DNA content was analyzed by flow cytometry for the sub-G0/G1 profile. At least two independent experiments were performed. TEXT PRINTED IN THE PICTURE: (E) Control: Sub-G1: 4.4% | (E) Psd1: Sub-G1: 60.6% (50μM)
Images were obtained in the X, Y, and Z planes of the image, giving the image a 3-dimensional depth (Z-stack) at 100× magnification with a Zeiss Cell Observer Yokogawa Spinning Disk confocal microscope (Cell Observed SD, Carl-Zeiss, Oberkochen, Germany) located in the Microscopia Óptica de Luz Gustavo de Oliveira Castro (Plamol) platform in Universidade Federal do Rio de Janeiro. To measure the mean fluorescence intensity (MFI), Zen Lite Blue (Carl-Zeiss, Oberkochen, Germany) software was used. On average, thirty cells per field were analyzed in fourteen fields by experiments. Then, the region of interest (ROI), specifically the nucleus and mitochondria, was tagged on the cells photographed for fluorescence analysis, which is given by the software from the intensity of the pixels. Subsequently, the statistical test was performed using GraphPad Prism version 7.4, and the values presented are averages with the corresponding standard deviations (SDs).
B16F10 cells were trypsinized and counted, and 1.5 × 10^4 cells/well in DMEM containing 0.1% (w/v) bovine serum albumin BSA were plated in a cell-view glass bottom culture dish with four compartments (Thermo Fisher Scientific Inc, Maryland, USA) and then incubated at 37 °C overnight to adhere. Post-treatment, the cells were treated with 3 or 50 µM Psd1 for 30 or 60 min and maintained at the same temperature. Cells treated with only water or 0.0001% H2O2 for 30 min were used as the negative and positive controls, respectively. Washes with saline were carried out between the additions of each probe followed by incubation at room temperature. The cells were incubated with 1 µL of SG, 1.5 µL of MitoTracker Red CMXRos, and 2 µL of DAPI for 10, 20, and 10 min, respectively. The fluorescent images were acquired by confocal microscopy.

B16F10 cells [6] = test: Mitochondrial staining (MitoTracker Red CMXRos), B16F10 cells; format: cell-based, murine; details: 50 µM
Method: as §1, with “At least two independent experiments were performed. TEXT PRINTED IN THE PICTURE: (E) Control: Sub-G1: 4.4% | (E) Psd1: Sub-G1: 60.6% (50μM)” left out
Figure 3 Fluorescein isothiocyanate (FITC)-Psd1 was localized in the B16F10 live cell nucleus. […] (C) The mean fluorescence intensity (MIF) of MitoTracker and FITC-Psd1 labeled cells measured over time. […]
Images were obtained in the X, Y, and Z planes of the image, giving the image a 3-dimensional depth (Z-stack) at 100× magnification with a Zeiss Cell Observer Yokogawa Spinning Disk confocal microscope (Cell Observed SD, Carl-Zeiss, Oberkochen, Germany) located in the Microscopia Óptica de Luz Gustavo de Oliveira Castro (Plamol) platform in Universidade Federal do Rio de Janeiro. […] On average, thirty cells per field were analyzed in fourteen fields by experiments. […]

Substance: Psd1: 46-amino acid residue plant defensin isolated from pea seeds, expressed in Pichia pastoris (PDB 1JKZ) (KTCEHLADTYRGVCFTNASCDDHCKNKAHLISGTCHNWKCFCTQNC)
- R8 cell viability (LDH release) [1]: no alteration in cell viability
- Beas-2B cell viability (MTT) [2]: no alteration in cell viability was observed even after 72 h of exposure
- Resistance of mutants to Psd1 antifungal activity and permeabilization [3]: partially resistant
- Inflammatory foci, Psd1 alone ([4]; 1 mg/kg Psd1 alone, i.v., day 21, p < 0.001 vs B16F10): very low inflammatory foci
- Number of lung inflammatory cells ([4]; 1 mg/kg Psd1 i.v. with B16F10 cells): near zero
- Accumulation of lung inflammatory cells ([4]; 1 and 3 mg/kg Psd1 i.v. with B16F10 cells, day 21, p < 0.001 vs B16F10): significant reduction in the accumulation of inflammatory cells
- SYTOXGreen entrance, nuclear staining (B16F10 cells [5]; 3 µM and 50 µM, 30 min, 37 °C): intense green nuclear staining
- Cell adhesion / shape (B16F10 cells [5]; 50 µM, 1 h): started to lose their adhesion capacity, assuming a less spread shape
- SYTOXGreen fluorescence signal (B16F10 cells [5]; 50 µM, 1 h, 37 °C, p < 0.0001 vs 3 and 50 µM for 30 min): increased significantly
- Mitochondria red marker (MitoTracker) (B16F10 cells [6]; 30 min): lower mitochondria red marker
- Mitochondria red fluorescence (MitoTracker) (B16F10 cells [6]; 1 h, probably superposition of SYTOXGreen and MitoTracker signals): brighter red fluorescence signal
